Data: patent publication US9139523B2, “5-HT2B receptor antagonists” (Janssen Pharmaceutica, NV, priority 2010, dated 2015)
Where two headings read alike, the source gives them in different places.

Assays:
[1] = Cardio-hemodynamic, cardio-electrophysiological, EEG and pulmonary effects in ventilated, anesthetized dogs; assay type: in vivo, dog; details: Beagle, plasma, iv, dog, 5-min i.v. infusion
Procedure: (§1) The animals were anesthetized with a mixture of 0.015 mg/kg i.v. scopolamine and 0.075 mg/kg i.v. lofentanil, and relaxed with succinylcholine (5 mg/kg i.v.) followed by a continuous i.v. infusion of 1.5 mg/kg/h of etomidate and small additional doses of fentanyl (0.025 mg/kg i.v.) were given at 60 min intervals. The animals were ventilated and prepared for measurements of the surface ECG, aortic-, pulmonary- and left ventricular blood pressure, carotid blood flow, monophasic action potential, body temperature, blood gasses and EEG (see Van Deuren et al, J Pharmacol Toxicol Methods; 2009; 60: 11-23). Compound (−)-17 was dissolved in 20% hydroxypropyl-cyclodextrin with NaOH, HCl and mannitol in pyrogen-free water and administered intravenously (1 ml/kg) in increasing doses (0.16, 0.32, 0.63, 1.25, 2.5 and 5 mg/kg) over a period of 5 min at 30-min intervals. Plasma concentrations of Compound (−)-17 were measured before and at the end of each infusion. Corresponding volumes of vehicle were administered according to the same protocol in a second group of animals.

[2] = test system: anesthetized dogs (Beagles); test: as above; assay type: in vivo, dog; details: for Median plasma level: 5-min i.v. infusion
Procedure: as §1

`COc1cc(N)c(Cl)cc1C(=O)NC1CCN(CCCOc2ccc(F)cc2)CC1(F)F` (single isomer, unassigned) [Compound (−)-17, 4-amino-5-chloro-N-{3,3-difluoro-1-[3-(4-fluorophenoxy)-propyl]-piperidin-4-yl}-2-methoxybenzamide] gave a Cmax ([1]; dose 1.25 mg/kg (increasing doses, 30-min intervals), read-out: Median plasma level (Cmax)) of 5200 ng/mL, a Cmax ([1]; dose 2.5 mg/kg (increasing doses, 30-min intervals), read-out: Median plasma level (Cmax)) of 9550 ng/mL and a Cmax ([1]; dose 5 mg/kg (increasing doses, 30-min intervals; total dose 9.86 mg/kg), read-out: Median plasma level (median Cmax)) of 20400 ng/mL. The “DPP, percentage change relative to vehicle” value ([2]; dog i.v. 0.16 mg/kg @ 5′) was “+3%”, the “HR, percentage change relative to vehicle” value ([2]; dog i.v. 0.16 mg/kg @ 5′) was −4% and the “LVdp/dtmax, percentage change relative to vehicle” value ([2]; dog i.v. 0.16 mg/kg @ 5′) was −1%. For the same compound, the “MBP, percentage change relative to vehicle” value ([2]; dog i.v. 0.16 mg/kg @ 5′) was “+2%”, the “PQ, percentage change relative to vehicle” value ([2]; dog i.v. 0.16 mg/kg @ 5′) was −1% and the “QRS, percentage change relative to vehicle” value ([2]; dog i.v. 0.16 mg/kg @ 5′) was “+1%”. The “QTcV, percentage change relative to vehicle” value ([2]; dog i.v. 0.16 mg/kg @ 5′) was “+2%”, the “SPP, percentage change relative to vehicle” value ([2]; dog i.v. 0.16 mg/kg @ 5′) was “+2%” and the “DPP, percentage change relative to vehicle” value ([2]; dog i.v. 0.16 mg/kg @ 30′) was −3%. For the same compound, the “HR, percentage change relative to vehicle” value ([2]; dog i.v. 0.16 mg/kg @ 30′) was −5%, the “LVdp/dtmax, percentage change relative to vehicle” value ([2]; dog i.v. 0.16 mg/kg @ 30′) was “+0%” and the “MBP, percentage change relative to vehicle” value ([2]; dog i.v. 0.16 mg/kg @ 30′) was “+3%”. The “PQ, percentage change relative to vehicle” value ([2]; dog i.v. 0.16 mg/kg @ 30′) was −0%, the “QRS, percentage change relative to vehicle” value ([2]; dog i.v. 0.16 mg/kg @ 30′) was “+2%” and the “QTcV, percentage change relative to vehicle” value ([2]; dog i.v. 0.16 mg/kg @ 30′) was “+4%”. The “SPP, percentage change relative to vehicle” value ([2]; dog i.v. 0.16 mg/kg @ 30′) was “+5%”, the “DPP, percentage change relative to vehicle” value ([2]; dog i.v. 0.32 mg/kg @ 5′) was “+0%” and the “HR, percentage change relative to vehicle” value ([2]; dog i.v. 0.32 mg/kg @ 5′) was −5%. The “LVdp/dtmax, percentage change relative to vehicle” value ([2]; dog i.v. 0.32 mg/kg @ 5′) was “+0%”, the “MBP, percentage change relative to vehicle” value ([2]; dog i.v. 0.32 mg/kg @ 5′) was “+5%” and the “PQ, percentage change relative to vehicle” value ([2]; dog i.v. 0.32 mg/kg @ 5′) was −2%. For the same compound, the “QRS, percentage change relative to vehicle” value ([2]; dog i.v. 0.32 mg/kg @ 5′) was “+3%”, the “QTcV, percentage change relative to vehicle” value ([2]; dog i.v. 0.32 mg/kg @ 5′) was “+2%” and the “SPP, percentage change relative to vehicle” value ([2]; dog i.v. 0.32 mg/kg @ 5′) was “+11%”. For the same compound, the “DPP, percentage change relative to vehicle” value ([2]; dog i.v. 0.32 mg/kg @ 30′) was −8%, the “HR, percentage change relative to vehicle” value ([2]; dog i.v. 0.32 mg/kg @ 30′) was “+3%” and the “LVdp/dtmax, percentage change relative to vehicle” value ([2]; dog i.v. 0.32 mg/kg @ 30′) was −4%. The “MBP, percentage change relative to vehicle” value ([2]; dog i.v. 0.32 mg/kg @ 30′) was “+2%”, the “PQ, percentage change relative to vehicle” value ([2]; dog i.v. 0.32 mg/kg @ 30′) was −2% and the “QRS, percentage change relative to vehicle” value ([2]; dog i.v. 0.32 mg/kg @ 30′) was “+4%”. The “QTcV, percentage change relative to vehicle” value ([2]; dog i.v. 0.32 mg/kg @ 30′) was “+1%”, the “SPP, percentage change relative to vehicle” value ([2]; dog i.v. 0.32 mg/kg @ 30′) was −3% and the “DPP, percentage change relative to vehicle” value ([2]; dog i.v. 0.63 mg/kg @ 5′) was “+0%”. The “HR, percentage change relative to vehicle” value ([2]; dog i.v. 0.63 mg/kg @ 5′) was −0%, the “LVdp/dtmax, percentage change relative to vehicle” value ([2]; dog i.v. 0.63 mg/kg @ 5′) was −3% and the “MBP, percentage change relative to vehicle” value ([2]; dog i.v. 0.63 mg/kg @ 5′) was “+6%”. For the same compound, the “PQ, percentage change relative to vehicle” value ([2]; dog i.v. 0.63 mg/kg @ 5′) was “+3%”, the “QRS, percentage change relative to vehicle” value ([2]; dog i.v. 0.63 mg/kg @ 5′) was “+4%” and the “QTcV, percentage change relative to vehicle” value ([2]; dog i.v. 0.63 mg/kg @ 5′) was “+1%”. The “SPP, percentage change relative to vehicle” value ([2]; dog i.v. 0.63 mg/kg @ 5′) was −2%, the “DPP, percentage change relative to vehicle” value ([2]; dog i.v. 0.63 mg/kg @ 30′) was −9% and the “HR, percentage change relative to vehicle” value ([2]; dog i.v. 0.63 mg/kg @ 30′) was “+4%”. The “LVdp/dtmax, percentage change relative to vehicle” value ([2]; dog i.v. 0.63 mg/kg @ 30′) was −2%, the “MBP, percentage change relative to vehicle” value ([2]; dog i.v. 0.63 mg/kg @ 30′) was “+2%” and the “PQ, percentage change relative to vehicle” value ([2]; dog i.v. 0.63 mg/kg @ 30′) was −0%. The “QRS, percentage change relative to vehicle” value ([2]; dog i.v. 0.63 mg/kg @ 30′) was “+1%”, the “QTcV, percentage change relative to vehicle” value ([2]; dog i.v. 0.63 mg/kg @ 30′) was “+4%” and the “SPP, percentage change relative to vehicle” value ([2]; dog i.v. 0.63 mg/kg @ 30′) was −1%. The “DPP, percentage change relative to vehicle” value ([2]; dog i.v. 1.25 mg/kg @ 5′) was −7%, the “HR, percentage change relative to vehicle” value ([2]; dog i.v. 1.25 mg/kg @ 5′) was −0% and the “LVdp/dtmax, percentage change relative to vehicle” value ([2]; dog i.v. 1.25 mg/kg @ 5′) was −1%. For the same compound, the “MBP, percentage change relative to vehicle” value ([2]; dog i.v. 1.25 mg/kg @ 5′) was “+10%”, the “PQ, percentage change relative to vehicle” value ([2]; dog i.v. 1.25 mg/kg @ 5′) was “+2%” and the “QRS, percentage change relative to vehicle” value ([2]; dog i.v. 1.25 mg/kg @ 5′) was “+4%”. The “QTcV, percentage change relative to vehicle” value ([2]; dog i.v. 1.25 mg/kg @ 5′) was “+2%”, the “SPP, percentage change relative to vehicle” value ([2]; dog i.v. 1.25 mg/kg @ 5′) was −1% and the “DPP, percentage change relative to vehicle” value ([2]; dog i.v. 1.25 mg/kg @ 30′) was −12%. For the same compound, the “HR, percentage change relative to vehicle” value ([2]; dog i.v. 1.25 mg/kg @ 30′) was −3%, the “LVdp/dtmax, percentage change relative to vehicle” value ([2]; dog i.v. 1.25 mg/kg @ 30′) was −5% and the “MBP, percentage change relative to vehicle” value ([2]; dog i.v. 1.25 mg/kg @ 30′) was “+0%”. For the same compound, the “PQ, percentage change relative to vehicle” value ([2]; dog i.v. 1.25 mg/kg @ 30′) was “+2%”, the “QRS, percentage change relative to vehicle” value ([2]; dog i.v. 1.25 mg/kg @ 30′) was “+2%” and the “QTcV, percentage change relative to vehicle” value ([2]; dog i.v. 1.25 mg/kg @ 30′) was “+1%”. The “SPP, percentage change relative to vehicle” value ([2]; dog i.v. 1.25 mg/kg @ 30′) was −9%, the “DPP, percentage change relative to vehicle” value ([2]; dog i.v. 2.5 mg/kg @ 5′) was “+1%” and the “HR, percentage change relative to vehicle” value ([2]; dog i.v. 2.5 mg/kg @ 5′) was −5%. For the same compound, the “LVdp/dtmax, percentage change relative to vehicle” value ([2]; dog i.v. 2.5 mg/kg @ 5′) was −8%, the “PQ, percentage change relative to vehicle” value ([2]; dog i.v. 2.5 mg/kg @ 5′) was “+6%” and the “QRS, percentage change relative to vehicle” value ([2]; dog i.v. 2.5 mg/kg @ 5′) was “+2%”. For the same compound, the “QTcV, percentage change relative to vehicle” value ([2]; dog i.v. 2.5 mg/kg @ 5′) was −3%, the “SPP, percentage change relative to vehicle” value ([2]; dog i.v. 2.5 mg/kg @ 5′) was −1% and the “DPP, percentage change relative to vehicle” value ([2]; dog i.v. 2.5 mg/kg @ 30′) was −24%. For the same compound, the “HR, percentage change relative to vehicle” value ([2]; dog i.v. 2.5 mg/kg @ 30′) was −4%, the “LVdp/dtmax, percentage change relative to vehicle” value ([2]; dog i.v. 2.5 mg/kg @ 30′) was “+2%” and the “MBP, percentage change relative to vehicle” value ([2]; dog i.v. 2.5 mg/kg @ 30′) was “+0%”. For the same compound, the “PQ, percentage change relative to vehicle” value ([2]; dog i.v. 2.5 mg/kg @ 30′) was “+2%”, the “QRS, percentage change relative to vehicle” value ([2]; dog i.v. 2.5 mg/kg @ 30′) was “+3%” and the “QTcV, percentage change relative to vehicle” value ([2]; dog i.v. 2.5 mg/kg @ 30′) was −1%. The “SPP, percentage change relative to vehicle” value ([2]; dog i.v. 2.5 mg/kg @ 30′) was −15%, the “DPP, percentage change relative to vehicle” value ([2]; dog i.v. 5 mg/kg @ 5′) was “+17%” and the “HR, percentage change relative to vehicle” value ([2]; dog i.v. 5 mg/kg @ 5′) was −15%. The “LVdp/dtmax, percentage change relative to vehicle” value ([2]; dog i.v. 5 mg/kg @ 5′) was −11%, the “PQ, percentage change relative to vehicle” value ([2]; dog i.v. 5 mg/kg @ 5′) was “+2%” and the “QRS, percentage change relative to vehicle” value ([2]; dog i.v. 5 mg/kg @ 5′) was “+6%”. The “QTcV, percentage change relative to vehicle” value ([2]; dog i.v. 5 mg/kg @ 5′) was −3%, the “SPP, percentage change relative to vehicle” value ([2]; dog i.v. 5 mg/kg @ 5′) was −10% and the “DPP, percentage change relative to vehicle” value ([2]; dog i.v. 5 mg/kg @ 30′) was −5%. For the same compound, the “HR, percentage change relative to vehicle” value ([2]; dog i.v. 5 mg/kg @ 30′) was −14%, the “LVdp/dtmax, percentage change relative to vehicle” value ([2]; dog i.v. 5 mg/kg @ 30′) was “+2%” and the “MBP, percentage change relative to vehicle” value ([2]; dog i.v. 5 mg/kg @ 30′) was “+0%”. The “QRS, percentage change relative to vehicle” value ([2]; dog i.v. 5 mg/kg @ 30′) was “+3%”, the “QTcV, percentage change relative to vehicle” value ([2]; dog i.v. 5 mg/kg @ 30′) was −2% and the “SPP, percentage change relative to vehicle” value ([2]; dog i.v. 5 mg/kg @ 30′) was −7%. The “effect on heart rate, pulmonary artery pressure, LV end diastolic pressure, cardiac output, stroke volume, pressure rate product, PQ and QRS, lung function, body temperature, EEG” value ([2]; dog, 0.16 up to 5 mg/kg i.v., relative to vehicle) was “no relevant effect”, the Median plasma level ([2]; dog, dose 0.16 mg/kg (increasing doses, 30-min intervals)) was 725 ng/mL and the Median plasma level ([2]; dog, dose 0.32 mg/kg (increasing doses, 30-min intervals)) was 1420 ng/mL. The Median plasma level ([2]; dog, dose 0.64 mg/kg (increasing doses, 30-min intervals)) was 2540 ng/mL, the LV dp/dtmax/pd ([2]; dog, at 2.5 mg/kg i.v.) was “started to decrease” and the “duration of QTc VDW and QTc VcT” value ([2]; dog, at 5 mg/kg i.v.) was “minor decrease”. For the same compound, the “arterial blood pressure, vascular resistance (systemic and common carotid) and Tau” value ([2]; dog, from 1.25 mg/kg i.v. onwards) was “started to increase”.
